Data published in patent US10582709B2, “Butyrolactones as herbicides” (FMC Corporation, priority 2015, dated 2020).

Tests used:
Type in all cases: in vivo
[1] = tested on: barnyardgrass (Echinochloa crus-galli); test: Test B flooded paddy test, barnyardgrass; details: applied to paddy water at 2-leaf stage, 13 to 15 d, scale 0 no effect to 100 complete control
Experimental: (§1) Plant species in the flooded paddy test selected from rice (Oryza sativa), sedge, umbrella (small-flower umbrella sedge, Cyperus difformis), ducksalad (Heteranthera limosa), and barnyardgrass (Echinochloa crus-galli) were grown to the 2-leaf stage for testing. At time of treatment, test pots were flooded to 3 cm above the soil surface, treated by application of test compounds directly to the paddy water, and then maintained at that water depth for the duration of the test. Treated plants and controls were maintained in a greenhouse for 13 to 15 d, after which time all species were compared to controls and visually evaluated. Plant response ratings, summarized in Table B, are based on a scale of 0 to 100 where 0 is no effect and 100 is complete control. A dash (-) response means no test result.

[2] = tested on: ducksalad (Heteranthera limosa); test: Test B flooded paddy test, ducksalad; details: applied to paddy water at 2-leaf stage, 13 to 15 d, scale 0 no effect to 100 complete control
Experimental: as §1

rice (Oryza sativa) = test: Test B flooded paddy test, rice; details: applied to paddy water at 2-leaf stage, 13 to 15 d, scale 0 no effect to 100 complete control
Experimental: as §1

[3] = tested on: sedge, umbrella (small-flower umbrella sedge, Cyperus difformis); test: Test B flooded paddy test, umbrella sedge; details: applied to paddy water at 2-leaf stage, 13 to 15 d, scale 0 no effect to 100 complete control
Experimental: as §1

[4] = tested on: barnyardgrass (Echinochloa crus-galli); test: Test A preemergence, barnyardgrass; details: visual rating after approx. 10 d, 0 to 100 scale, 0 no effect, 100 complete control
Excerpt: (§2) Seeds of plant species selected from barnyardgrass (Echinochloa crus-galli), crabgrass (large crabgrass, Digitaria sanguinalis), kochia (Kochia scoparia), ragweed (common ragweed, Ambrosia elatior), morningglory (Ipomoea spp.), velvetleaf (Abutilon theophrasti), ryegrass, Italian (Italian ryegrass, Lolium multiflorum), foxtail, giant (giant foxtail, Setaria faberii), wheat (Triticum aestivum), corn (Zea mays), and pigweed (Amaranthus retroflexus), were planted into a blend of loam soil and sand and treated preemergence with a directed soil spray using test chemicals formulated in a non-phytotoxic solvent mixture which included a surfactant. At the same time, plants selected from these crop and weed species and also blackgrass (Alopecurus myosuroides), and galium (catchweed bedstraw, Galium aparine), were planted in pots containing the same blend of loam soil and sand and treated with postemergence applications of test chemicals formulated in the same manner. Plants ranged in height from 2 to 10 cm and were in the one- to two-leaf stage for the postemergence treatment. Treated plants and untreated controls were maintained in a greenhouse for approximately 10 d, after which time all treated plants were compared to untreated controls and visually evaluated for injury. Plant response ratings, summarized in Table A, are based on a 0 to 100 scale where 0 is no effect and 100 is complete control. A dash (-) response means no test result.

kochia (Kochia scoparia) [5] = test: Test A preemergence, kochia; details: visual rating after approx. 10 d, 0 to 100 scale, 0 no effect, 100 complete control
Excerpt: as §2

[6] = tested on: ragweed (common ragweed, Ambrosia elatior); test: Test A preemergence, ragweed; details: visual rating after approx. 10 d, 0 to 100 scale, 0 no effect, 100 complete control
Excerpt: as §2

[7] = tested on: ryegrass, Italian (Italian ryegrass, Lolium multiflorum); test: Test A preemergence, Italian ryegrass; details: visual rating after approx. 10 d, 0 to 100 scale, 0 no effect, 100 complete control
Excerpt: as §2

[8] = tested on: foxtail, giant (giant foxtail, Setaria faberii); test: Test A preemergence, giant foxtail; details: visual rating after approx. 10 d, 0 to 100 scale, 0 no effect, 100 complete control
Excerpt: as §2

[9] = tested on: pigweed (Amaranthus retroflexus); test: Test A preemergence, pigweed; details: visual rating after approx. 10 d, 0 to 100 scale, 0 no effect, 100 complete control
Excerpt: as §2

[10] = tested on: barnyardgrass (Echinochloa crus-galli); test: Test A postemergence, barnyardgrass; details: visual rating after approx. 10 d, 0 to 100 scale, 0 no effect, 100 complete control
Excerpt: as §2

kochia (Kochia scoparia) [11] = test: Test A postemergence, kochia; details: visual rating after approx. 10 d, 0 to 100 scale, 0 no effect, 100 complete control
Excerpt: as §2

[12] = tested on: ragweed (common ragweed, Ambrosia elatior); test: Test A postemergence, ragweed; details: visual rating after approx. 10 d, 0 to 100 scale, 0 no effect, 100 complete control
Excerpt: as §2

[13] = tested on: ryegrass, Italian (Italian ryegrass, Lolium multiflorum); test: Test A postemergence, Italian ryegrass; details: visual rating after approx. 10 d, 0 to 100 scale, 0 no effect, 100 complete control
Excerpt: as §2

[14] = tested on: foxtail, giant (giant foxtail, Setaria faberii); test: Test A postemergence, giant foxtail; details: visual rating after approx. 10 d, 0 to 100 scale, 0 no effect, 100 complete control
Excerpt: as §2

[15] = tested on: wheat (Triticum aestivum); test: Test A postemergence, wheat; details: visual rating after approx. 10 d, 0 to 100 scale, 0 no effect, 100 complete control
Excerpt: as §2

corn (Zea mays) = test: Test A postemergence, corn; details: visual rating after approx. 10 d, 0 to 100 scale, 0 no effect, 100 complete control
Excerpt: as §2

[16] = tested on: pigweed (Amaranthus retroflexus); test: Test A postemergence, pigweed; details: visual rating after approx. 10 d, 0 to 100 scale, 0 no effect, 100 complete control
Excerpt: as §2

[17] = tested on: blackgrass (Alopecurus myosuroides); test: Test A postemergence, blackgrass; details: visual rating after approx. 10 d, 0 to 100 scale, 0 no effect, 100 complete control
Excerpt: as §2

[18] = tested on: galium (catchweed bedstraw, Galium aparine); test: Test A postemergence, galium; details: visual rating after approx. 10 d, 0 to 100 scale, 0 no effect, 100 complete control
Excerpt: as §2

SMILES | Plant response rating, Flood, Barnyardgrass ([1]; 250 g ai/ha) | Plant response rating, Flood, Ducksalad ([2]; 250 g ai/ha) | Plant response rating, Flood, Rice (rice (Oryza sativa); 250 g ai/ha) | Plant response rating, Flood, Sedge, Umbrella ([3]; 250 g ai/ha) | Plant response rating, Barnyardgrass ([10]; 125 g ai/ha) | Plant response rating, Barnyardgrass ([10]; 500 g ai/ha) | Plant response rating, Kochia (kochia (Kochia scoparia) [11]; 125 g ai/ha) | Plant response rating, Kochia (kochia (Kochia scoparia) [11]; 500 g ai/ha) | Plant response rating, Ragweed ([12]; 125 g ai/ha) | Plant response rating, Ragweed ([12]; 500 g ai/ha) | Plant response rating, Ryegrass, Italian ([13]; 125 g ai/ha) | Plant response rating, Ryegrass, Italian ([13]; 500 g ai/ha) | Plant response rating, Foxtail, Giant ([14]; 125 g ai/ha) | Plant response rating, Foxtail, Giant ([14]; 500 g ai/ha) | Plant response rating, Wheat ([15]; 125 g ai/ha) | Plant response rating, Wheat ([15]; 500 g ai/ha) | Plant response rating, Corn (corn (Zea mays); 125 g ai/ha) | Plant response rating, Pigweed ([16]; 125 g ai/ha) | Plant response rating, Blackgrass ([17]; 125 g ai/ha) | Plant response rating, Galium ([18]; 125 g ai/ha) | other results
O=C(Nc1ccccc1F)C1C(=O)OCC1c1ccc(C(F)(F)F)cc1 (racemic) [Compound 8] | 0 | 30 | 0 | 0 | 0 | 20 | 0 | 0 | 0 | 0 | 0 | 0 | 20 | 40 | 0 | 0 | 0 | 0 | 0 | 0 | Plant response rating, Flood, Barnyardgrass ([1]; 1000 g ai/ha): 0; Plant response rating, Flood, Ducksalad ([2]; 1000 g ai/ha): 30; Plant response rating, Flood, Rice (rice (Oryza sativa); 1000 g ai/ha): 0; Plant response rating, Flood, Sedge, Umbrella ([3]; 1000 g ai/ha): 0; Plant response rating, Barnyardgrass ([4]; 125 g ai/ha): 0; Plant response rating, Barnyardgrass ([4]; 500 g ai/ha): 20; Plant response rating, Kochia (kochia (Kochia scoparia) [5]; 125 g ai/ha): 0; Plant response rating, Kochia (kochia (Kochia scoparia) [5]; 500 g ai/ha): 0; Plant response rating, Ragweed ([6]; 125 g ai/ha): 0; Plant response rating, Ragweed ([6]; 500 g ai/ha): 0; Plant response rating, Ryegrass, Italian ([7]; 125 g ai/ha): 0; Plant response rating, Ryegrass, Italian ([7]; 500 g ai/ha): 0; Plant response rating, Foxtail, Giant ([8]; 125 g ai/ha): 20; Plant response rating, Foxtail, Giant ([8]; 500 g ai/ha): 40; Plant response rating, Pigweed ([9]; 125 g ai/ha): 0; Plant response rating, Pigweed ([9]; 500 g ai/ha): 0; Plant response rating, Corn (corn (Zea mays); 500 g ai/ha): 0; Plant response rating, Pigweed ([16]; 500 g ai/ha): 0; Plant response rating, Blackgrass ([17]; 500 g ai/ha): 0; Plant response rating, Galium ([18]; 500 g ai/ha): 0
O=C(Nc1cccc(F)c1C(F)(F)F)C1C(=O)OCC1c1ccc(C(F)(F)F)cc1 (racemic) [Compound 10] | 0 | 20 | 0 | 0 | 0 | 0 | 0 | 0 | 0 | 0 | 0 | 0 | 30 | 70 | 0 | 0 | 0 | 0 | 0 | 0 | Plant response rating, Flood, Barnyardgrass ([1]; 1000 g ai/ha): 0; Plant response rating, Flood, Ducksalad ([2]; 1000 g ai/ha): 25; Plant response rating, Flood, Rice (rice (Oryza sativa); 1000 g ai/ha): 0; Plant response rating, Flood, Sedge, Umbrella ([3]; 1000 g ai/ha): 0; Plant response rating, Barnyardgrass ([4]; 125 g ai/ha): 0; Plant response rating, Barnyardgrass ([4]; 500 g ai/ha): 0; Plant response rating, Kochia (kochia (Kochia scoparia) [5]; 125 g ai/ha): 0; Plant response rating, Kochia (kochia (Kochia scoparia) [5]; 500 g ai/ha): 0; Plant response rating, Ragweed ([6]; 125 g ai/ha): 0; Plant response rating, Ragweed ([6]; 500 g ai/ha): 0; Plant response rating, Ryegrass, Italian ([7]; 125 g ai/ha): 0; Plant response rating, Ryegrass, Italian ([7]; 500 g ai/ha): 0; Plant response rating, Foxtail, Giant ([8]; 125 g ai/ha): 40; Plant response rating, Foxtail, Giant ([8]; 500 g ai/ha): 50; Plant response rating, Pigweed ([9]; 125 g ai/ha): 0; Plant response rating, Pigweed ([9]; 500 g ai/ha): 0; Plant response rating, Corn (corn (Zea mays); 500 g ai/ha): 0; Plant response rating, Pigweed ([16]; 500 g ai/ha): 0; Plant response rating, Blackgrass ([17]; 500 g ai/ha): 0; Plant response rating, Galium ([18]; 500 g ai/ha): 0
O=C(Nc1cccc(F)c1F)C1C(=O)OCC1c1ccc(C(F)(F)F)cc1 (racemic) [Compound 7] | 0 | 30 | 0 | 0 | 0 | 20 | 0 | 0 | 0 | 0 | 0 | 0 | 20 | 50 | 0 | 0 | 0 | 0 | 0 | 0 | Plant response rating, Flood, Barnyardgrass ([1]; 1000 g ai/ha): 0; Plant response rating, Flood, Ducksalad ([2]; 1000 g ai/ha): 40; Plant response rating, Flood, Rice (rice (Oryza sativa); 1000 g ai/ha): 0; Plant response rating, Flood, Sedge, Umbrella ([3]; 1000 g ai/ha): 0; Plant response rating, Barnyardgrass ([4]; 125 g ai/ha): 0; Plant response rating, Barnyardgrass ([4]; 500 g ai/ha): 30; Plant response rating, Kochia (kochia (Kochia scoparia) [5]; 125 g ai/ha): 0; Plant response rating, Kochia (kochia (Kochia scoparia) [5]; 500 g ai/ha): 0; Plant response rating, Ragweed ([6]; 125 g ai/ha): 0; Plant response rating, Ragweed ([6]; 500 g ai/ha): 0; Plant response rating, Ryegrass, Italian ([7]; 125 g ai/ha): 0; Plant response rating, Ryegrass, Italian ([7]; 500 g ai/ha): 0; Plant response rating, Foxtail, Giant ([8]; 125 g ai/ha): 30; Plant response rating, Foxtail, Giant ([8]; 500 g ai/ha): 80; Plant response rating, Pigweed ([9]; 125 g ai/ha): 0; Plant response rating, Pigweed ([9]; 500 g ai/ha): 0; Plant response rating, Corn (corn (Zea mays); 500 g ai/ha): 0; Plant response rating, Pigweed ([16]; 500 g ai/ha): 0; Plant response rating, Blackgrass ([17]; 500 g ai/ha): 0; Plant response rating, Galium ([18]; 500 g ai/ha): 0
CC1(C(=O)Nc2ccccc2C(F)(F)F)C(=O)OCC1c1ccc(F)cc1 (racemic) [Compound 21] | 90 | 90 | 30 | 0 | 0 | 30 | 0 | 0 | 0 | 40 | 0 | 0 | 0 | 0 | 0 | 0 | 0 | 0 | 0 | 0 | Plant response rating, Corn (corn (Zea mays); 500 g ai/ha): 0; Plant response rating, Pigweed ([16]; 500 g ai/ha): 0; Plant response rating, Blackgrass ([17]; 500 g ai/ha): 30; Plant response rating, Galium ([18]; 500 g ai/ha): 30
CC1(C(=O)Nc2cccc(F)c2F)C(=O)OCC1c1ccc(F)cc1 (racemic) [Compound 22] | 0 | 0 | 20 | 0 | 90 | – | 0 | – | 0 | – | 20 | – | 60 | – | 0 | – | 0 | 0 | 0 | 20 | Plant response rating, Barnyardgrass ([10]; 31 g ai/ha): 40; Plant response rating, Kochia (kochia (Kochia scoparia) [11]; 31 g ai/ha): 0; Plant response rating, Ragweed ([12]; 31 g ai/ha): 0; Plant response rating, Ryegrass, Italian ([13]; 31 g ai/ha): 20; Plant response rating, Foxtail, Giant ([14]; 31 g ai/ha): 30; Plant response rating, Wheat ([15]; 31 g ai/ha): 0; Plant response rating, Corn (corn (Zea mays); 31 g ai/ha): 0; Plant response rating, Pigweed ([16]; 31 g ai/ha): 0; Plant response rating, Blackgrass ([17]; 31 g ai/ha): 0; Plant response rating, Galium ([18]; 31 g ai/ha): 0
